Measured values: patent publication US10882838B2, “Cannabinergic compounds and uses thereof” (Northeastern University, priority 2012, dated 2021)
pKi: −log10 of the molar value.

Tests used:
[1] = background statement; cited from earlier work
[2] = background statement; cited from earlier work; remark: listed apart in the source
[3] = Stability in plasma (half-life); format: in vitro ADME, rat or monkey; settings: method: 200 μM in plasma, 37°; species of plasma not given
Protocol: The designed compounds carry a side chain that is susceptible to plasma esterase activity, inviting their rapid deactivation. Thus, it is important to characterize the rate of compound metabolism in isolated rat or monkey plasma. As a preliminary predictor of oral stability, this assay will also be done in buffers at pH 2 (to emulate the stomach) and pH 7.4 (physiological pH). Compounds (10 mM in DMSO) are diluted in plasma, acetonitrile or buffer to a concentration of 200 μM and incubated in a 37° shaking water bath for 2 hours. Samples are taken periodically, diluted 1:4 with acetonitrile and centrifuged to precipitate protein. The resulting supernatant is analyzed by HPLC to predict expected in vivo plasma half-lives.

hCB2 receptor = hCB2 receptor (Homo sapiens (Human), UniProt P34972); assay: hCB2 competition-equilibrium binding with [3H]CP-55,940, membranes of HEK293 cells expressing hCB2; settings: HEK293 cells expressing hCB2, [3H]CP-55,940; read-out: hCB2 Ki
Protocol: (§1) HEK293 cells expressing hCB1 or hCB2 or mCB2 receptor are used for membrane preparations according to Abadji et al. The resulting pellet is resuspended in 10 mM Tris-chloride, pH 7.4, with 5 mM MgCl2 and 2 mM EDTA (TME), rapidly frozen in liquid nitrogen and stored at −80° C. for no longer than two months. Protein content is assayed by using the Bio-Rad protein assay according to the manufacturer's protocol.
(§2) All the cannabinoids discussed in this invention are tested for their ability to bind to CB1 and CB2 receptors using membranes from rat brain or HEK293 cells expressing either mCB2 or hCB2, respectively via competition-equilibrium binding using [^3H]CP-55,940. Results are analyzed using nonlinear regression to determine ligand IC50 (Prism by GraphPad Software, Inc.), and Ki values are calculated from the IC50. IC50 and Ki values are determined from at least three independent experiments.

CB1 receptor = CB1 receptor (Rattus norvegicus (Rat), UniProt P20272); assay: rCB1 competition-equilibrium binding with [3H]CP-55,940, rat brain membranes; settings: rat brain membranes, [3H]CP-55,940; read-out: rCB1 Ki
Protocol: Frozen rat brains (CB1 source) are obtained from Pel-Freeze Biologicals (Rogers, Ak.) and stored at −80° C. until use. Membranes are prepared according to the method described by Dodd et al. and used in our laboratory as reported.
as §2

mCB2 receptor = mCB2 receptor (Mus musculus (Mouse), UniProt P47936); assay: mCB2 competition-equilibrium binding with [3H]CP-55,940, membranes of HEK293 cells expressing mCB2; settings: HEK293 cells expressing mCB2, [3H]CP-55,940; read-out: mCB2 Ki
Protocol: as §1, §2

[4] = background statement, up to; cited from earlier work

For `CCCCCCC(C)(C)c1cc(O)c2c(c1)OC(C)(C)C1CCC(=O)CC21` (centres unmarked) [Nabilone], the “clog P” value [1] is given as over 7 and the protein binding [2] is given as at least 97%.
`CC1=CC[C@@H]2[C@@H](C1)c1c(O)cc(CC(=O)OCCCCC#N)cc1OC2(C)C` [Compound 1.28, 4-cyanobutyl-2-((6aR,10aR)-6a,7,10,10a-tetrahydro-1-hydroxy-6,6,9-trimethyl-6H-benzo[c]chromen-3-yl)acetate] showed a half-life at 200 μM [3] of 4.8 min, a pKi (hCB2 receptor) of 8.92 and a pKi (CB1 receptor) of 7.84. For the same molecule, the pKi (mCB2 receptor) was 8.68.
With `CCCCOC(=O)C(C)c1cc(O)c2c(c1)OC(C)(C)[C@@H]1CC=C(C)C[C@@H]21` (stereo partly drawn) [Compound 1.12, Butyl 2-((6aR,10aR)-1-hydroxy-6,6,9-trimethyl-6a,7,10,10a-tetrahydro-6H-benzo[c]chromen-3-yl)propanoate] the half-life at 200 μM [3] was 3 min, the pKi (hCB2 receptor) was 9.00 and the pKi (CB1 receptor) was 9.15. For the same molecule, the pKi (mCB2 receptor) was 8.92.
Work on `CCCCOC(=O)C(C)(C)c1cc(O)c2c(c1)OC(C)(C)[C@@H]1CC=C(CO)C[C@@H]21` [Compound 2.2, Butyl-2-((6aR,10aR)-6a,7,10,10a-tetrahydro-1-hydroxy-9-(hydroxymethyl)-6,6-dimethyl-6H-benzo[c]chromen-3-yl)-2-methylpropanoate] yielded a half-life at 200 μM [3] of 5 min, a pKi (hCB2 receptor) of 9.10 and a pKi (CB1 receptor) of 9.22. It also gave a pKi (mCB2 receptor) of 8.82.
Molecule `CC1=CC[C@@H]2[C@@H](C1)c1c(O)cc(C3(C(=O)OCCCCBr)CCC3)cc1OC2(C)C` [Compound 1.18, 4-bromobutyl 1-((6aR,10aR)-1-hydroxy-6,6,9-trimethyl-6a,7,10,10a-tetrahydro-6H-benzo[c]chromen-3-yl)cyclobutanecarboxylate] has a half-life at 200 μM [3] of 50 min, a pKi (hCB2 receptor) of 9.15 and a pKi (CB1 receptor) of 9.52. It also gave a pKi (mCB2 receptor) of 8.43.
`CC1=CC[C@@H]2[C@@H](C1)c1c(O)cc(C(C)(C)C(=O)OCCCCN3CCOCC3)cc1OC2(C)C` [Compound 1.24, 4-morpholinobutyl 2-((6aR,10aR)-1-hydroxy-6,6,9-trimethyl-6a,7,10,10a-tetrahydro-6H-benzo[c]chromen-3-yl)-2-methylpropanoate] gave a half-life at 200 μM [3] of 68 min, a pKi (hCB2 receptor) of 7.40 and a pKi (CB1 receptor) of 7.47. It also gave a pKi (mCB2 receptor) of 7.14.
Molecule `COC(=O)C(C)(C)c1cc(O)c2c(c1)OC(C)(C)[C@@H]1CC=C(C)C[C@@H]21` [Compound 1.34, Methyl-2-((6aR,10aR)-6a,7,10,10a-tetrahydro-1-hydroxy-6,6,9-trimethyl-6H-benzo[c]chromen-3-yl)-2-methylpropanoate] has a half-life at 200 μM [3] of 60 min, a pKi (hCB2 receptor) of 7.43 and a pKi (CB1 receptor) of 7.08. It also gave a pKi (mCB2 receptor) of 7.46.
`CCCCOC(=O)C1(c2cc(O)c3c(c2)OC(C)(C)[C@@H]2CC=C(C)C[C@@H]32)CCC1` [Compound 1.20, butyl 1-((6aR,10aR)-1-hydroxy-6,6,9-trimethyl-6a,7,10,10a-tetrahydro-6H-benzo[c]chromen-3-yl)cyclobutane carboxylate] showed a half-life at 200 μM [3] of 40 min, a pKi (hCB2 receptor) of 9.40 and a pKi (CB1 receptor) of 9.15. For the same molecule, the pKi (mCB2 receptor) was 9.15.
With `CC1=CC[C@H]2[C@@H](C1)c1c(O)cc(C(C)(C)C(=O)OCCCCBr)cc1OC2(C)C` [Compound 1.2, 4-bromobutyl-2-((6aS,10aR)-6a,7,10,10a-tetrahydro-1-hydroxy-6,6,9-trimethyl-6H-benzochromen-3-yl)-2-methylpropanoate] the “t 1/2” value [3] was 15 min, the pKi (hCB2 receptor) was 9.10 and the pKi (CB1 receptor) was 8.92. The pKi (mCB2 receptor) was 9.22.
For `CCCCCc1cc(O)c2c(c1)OC(C)(C)[C@@H]1CCC(C)=C[C@@H]21` [Dronabinol], the “slow and erratic absorption” value [4] is listed as 2 to 6 h, the “clog P” value [1] is listed as over 7 and the protein binding [2] is listed as at least 97%.
In the case of `CCCCOC(=O)C(C)(C)c1cc(O)c2c(c1)OC(C)(C)[C@@H]1CC[C@H](O)C[C@@H]21` [Compound 3.8, Butyl-2-((6aR,9S,10aR)-6a,7,8,9,10,10a-hexahydro-1,9-dihydroxy-6,6-dimethyl-6H-benzo[c]chromen-3-yl)-2-methylpropanoate], the half-life at 200 μM [3] was 8 min, the pKi (hCB2 receptor) was 8.35 and the pKi (CB1 receptor) was 8.51. The pKi (mCB2 receptor) was 8.18.
